Literature values in patent US12527815B2, “Aqueous formulation including dissolved hydrogen gas and minerals and additives” (BEST PLANET SCIENCE LLC, priority 2023, dated 2026).

Settings: partial pressure of one atm

## [HH] [hydrogen gas, hydrogen]
  equilibrium concentration (saturation) of hydrogen gas in water: 1.57 mg/L
